The source of these data is patent US20160040215A1, “Methods for Pathogen Detection and Enrichment from Materials and Compositions” (priority 2013, published 2016).

Experiment [1] concerns viable cells of fecal suspension.
The subject of experiment [2] is M. morganii and P. pennerii isolates. The experiment is described as follows: microbe, parasite or virus in culture. The class given is cell-based.
For experiment [3], the system named is ethanol treated spores. The experiment is described as follows: Germination of ethanol treated spores with germinants, CFU on plate media. Conditions: 2 ug/ml; plated on Sweet B or M2GSC media, single donor, FIG. 9.

In brackets after ≈: the same amount, converted by molar mass. Read-outs that look alike come from different tables or passages of the source.

For the molecule `CCO` [Ethanol, ethanol], the “reduction of the number of viable cells” value in experiment [1] is listed as “approximately 4 logs”.
Take `C[C@@H](O)[C@H]1C(=O)N2C(C(=O)O)=C(SCCN=CN)C[C@H]12` [imipenem]: the MIC was in the range of 4 to 8 µg/mL in experiment [2] and 2 to 4 µg/mL (≈ 6.68 to 13.4 µM) in experiment [2] (Morganella morganii).
For the molecule lysozyme, the “effect of addition to the plates on CFU, in words” value in experiment [3] is “small effect”.
